{"source": "patent US20210145772A1", "about": "“CAP[…] USE IN TREATING ACRAL LICK GRANULOMA” (Centrexion Therapeutics Corporation, priority 2014, published 2021)", "type_in_all_cases": "in vivo, dog (canine)", "key": {"[1]": {"test_system": "acral lick granuloma", "assay": "Lesion size: measured long and short axis, surface area approximated as an ellipse", "method": "(§1) Six dogs suffering from acral lick granuloma were treated using injectable capsaicin and evaluated.\n(§2) After the screening visit, the dog returned to the site on Day 0 for injection with Study Drug. As a general procedure, dogs were anesthetized using a short-acting anesthetic protocol before injection of the Study Drug. If propofol was used, it was used for induction prior to gas anesthesia but not as a drip to maintain anesthesia. The area to be injected with Study Drug was prepared using site disinfection procedures that are routinely used at veterinary hospital.\n(§3) The Study Drug was trans-capsaicin in a solution of polyethylene glycol 300 (PEG 300) and water for injection. The Study Drug was prepared by diluting (i) a solution of PEG 300 containing trans-capsaicin at a concentration of 2 mg/mL (hereinafter “Solution A”) with (ii) sterile water for injection. Solution A was diluted with a volume of sterile water for injection (WFI) in an amount equal to 4 to 5-fold to produce the Study Drug.\n(§4) Study Drug was administered to the dog by subcutaneous injection at several locations under the index acral lick granuloma. The goal of the injection was to infiltrate the Study Drug at the junction between the granuloma and healthy tissue throughout the area of the lesion. The dose of trans-capsaicin per lesion to be administered was approximately 1.5 μg of trans-capsaicin per mm^2 of lesion. Each lesion to be injected was measured (mm) for long axis (length) and short axis (width). The approximate surface area was calculated based on an elliptical shape. Based on the calculated lesion areas, the calculated dose of trans-capsaicin per lesion ranged from <0.10 mg to 2.65 mg of trans-capsaicin. Dog reactions during and immediately after the injection procedure were recorded in the study records. Injections of Study Drug were performed using a 22 gauge needle.\n(§5) Physical examinations of the dog including the injection site observation were conducted. General and dermatologic exams, including a description, measurements (dimensions), and digital photograph of the index lesion were collected.\n(§6) An illustration of the lesion(s) from each dog prior to injection with Study Drug are provided in FIG. 1, along with illustrations of the lesions from each dog at Day 14 and separately at Day 28 of the study. FIG. 2 provides illustrations of the lesions from each dog prior to injection of Study Drug, at Day 14 of the study, and at Day 28 of the study, where the lesion is traced for Adobe Acrobat IX determination of lesion area."}, "[2]": {"test_system": "acral lick granuloma", "assay": "Lesion surface area from traced lesion photographs (Adobe Acrobat measurement tool)", "excerpt": "FIG. 2 provides illustrations of the lesion(s) from each dog prior to injection of Study Drug, at Day 14, and at Day 28 of the study, where the lesion is traced for Adobe Acrobat IX determination of lesion area, as further described in Example 1 herein.\nas §2, §3, §4, §5, §6"}, "[3]": {"test_system": "acral lick granuloma", "assay": "Client Specific Outcome Measure (CSOM), owner-scored, in dogs with acral lick granuloma after subcutaneous injection", "method": "A clinical study was performed to evaluate the effect of injectable capsaicin in treating acral lick granuloma in canines. A total of six dogs suffering from acral lick granuloma were treated using injectable capsaicin and evaluated. Experimental procedures are described in Part I below.\nas §1\nAt a Screening visit, the index lesion was examined. The diagnosis of the index granuloma was made based on characteristics of the lesion and history of licking. Veterinary personnel reviewed with each dog owner the concept and implementation of an Owner-derived efficacy assessment, the Client Specific Outcome Measure (CSOM, based loosely on the CSOM developed for use with osteoarthritis (Gingerich D, and Strobel J. in “Use of client-specific outcome measures to assess treatment effects in geriatric, arthritic dogs: Controlled clinical evaluation of a nutraceutical,” Vet. Ther. (2003) vol. 4, pages 56-66)), to assess the severity and progression of licking behavior associated with the acral lick granuloma. Up to three activities were identified and scored relative to their state prior to the acral lick granuloma (1-no problem, 2-mildly problematic, 3-moderately problematic, 4-severely problematic, 5-impossible). The CSOM assessment was completed at Screening Day (i.e., seven days before administration of capsaicin, also referred to as Day −7), Day 0, Day 14 (±2), and Day 28 (±3) until study termination.\nas §2, §3, §4\nAs noted above, the severity of licking behavior caused by the acral lick granuloma was measured by the owner using a modification of a previously published system (Gingerich and Strobel 2003 noted above). During Screening, dog owners were interviewed by veterinary personnel trained in CSOM assessments (e.g., Study Coordinator) to identify one to three activities that have changed as a result of the acral lick granuloma. Activities focused on the use of the limb(s) with the index lesion and on behavioral responses. For example, excessive licking of the granuloma would be a behavioral response. […]"}, "[4]": {"settings": "individual lesion of individual dog"}}, "note": "Values joined by “and” are separate entries in the source; they are usually repeats but may differ in a detail not shown here. Identical values can stand only once.", "data": [{"smiles": "COc1cc(CNC(=O)CCCC/C=C/C(C)C)ccc1O", "note": "[Study Drug, trans-capsaicin]", "values": [{"measurement": "Lesion surface area (ellipse) Delta Day 14-baseline", "setting": "[1]; average of 13 lesions", "result": 49}, {"measurement": "Lesion surface area (ellipse) Delta Day 28-baseline", "setting": "[1]; average of 13 lesions", "result": 200}, {"measurement": "Lesion surface area (ellipse) Percent Change to Day 14", "setting": "[1]; average of 13 lesions", "result": 6, "unit": "%"}, {"measurement": "Lesion surface area (ellipse) Percent Change to Day 28", "setting": "[1]; average of 13 lesions", "result": 15, "unit": "%"}, {"measurement": "Lesion surface area Day 14 (approximation of an ellipse)", "setting": "[1]; average of 13 lesions", "result": 533, "unit": "sq mm"}, {"measurement": "Lesion surface area Day 28 (approximation of an ellipse)", "setting": "[1]; average of 13 lesions", "result": 684, "unit": "sq mm"}, {"measurement": "Lesion surface area (ellipse) Delta Day 14-baseline", "setting": "[1]; individual lesion", "result": "−55 and 291 and 0 and −63 and 163 and 329 and −188 and −115 and 57 and −48 and 263 and 55 and −51"}, {"measurement": "Lesion surface area (ellipse) Delta Day 28-baseline", "setting": "[1]; individual lesion", "result": "−43 and 134 and −20 and −82 and 734 and 1250 and −75 and 151 and 148 and −7 and 393 and 55 and −39"}, {"measurement": "Lesion surface area (ellipse) Percent Change to Day 14", "setting": "[1]; individual lesion", "result": "−100% and 285% and 0% and −76% and 16% and 62% and −47% and −19% and 20% and −14% and 15% and 5% and −65%"}, {"measurement": "Lesion surface area (ellipse) Percent Change to Day 28", "setting": "[1]; individual lesion", "result": "−79% and 131% and −100% (2×) and 71% and 235% and −18% and 25% and 54% and −2% and 22% and 5% and −50%"}, {"measurement": "Lesion surface area Day 14 (approximation of an ellipse)", "setting": "[1]; individual lesion", "result": "0 sq mm and 393 sq mm and 20 sq mm (2×) and 1195 sq mm and 862 sq mm and 216 sq mm and 483 sq mm and 334 sq mm and 292 sq mm and 2030 sq mm and 1060 sq mm and 27 sq mm"}, {"measurement": "Lesion surface area Day 28 (approximation of an ellipse)", "setting": "[1]; individual lesion", "result": "12 sq mm and 236 sq mm and 0 sq mm (2×) and 1766 sq mm and 1782 sq mm and 329 sq mm and 749 sq mm and 425 sq mm and 333 sq mm and 2160 sq mm and 1060 sq mm and 39 sq mm"}, {"measurement": "Lesion size Day 14-long axis", "setting": "[1]; [4]", "result": "0 mm and 25 mm and 5 mm (2×) and 65.3 mm and 46.5 mm and 18.2 mm and 39.7 mm and 29.7 mm and 25.3 mm and 55 mm and 45 mm and 7 mm"}, {"measurement": "Lesion size Day 14-short axis", "setting": "[1]; [4]", "result": "0 mm and 20 mm and 5 mm (3×) and 23.3 mm and 23.6 mm and 15.1 mm and 15.5 mm and 14.3 mm and 14.7 mm and 47 mm and 30 mm"}, {"measurement": "Lesion size Day 28-long axis", "setting": "[1]; [4]", "result": "5 mm and 20 mm and 0 mm (2×) and 88.2 mm and 65.2 mm and 23.3 mm and 46.1 mm and 31.1 mm and 20.5 mm and 55 mm and 45 mm and 10 mm"}, {"measurement": "Lesion size Day 28-short axis", "setting": "[1]; [4]", "result": "3 mm and 15 mm and 0 mm (2×) and 25.5 mm and 34.8 mm and 18 mm and 20.7 mm (2×) and 17.4 mm and 50 mm and 30 mm and 5 mm"}, {"measurement": "Lesion surface area (Adobe Acrobat) Delta Day 14-baseline", "setting": "[2]; average of lesions", "result": "−91"}, {"measurement": "Lesion surface area (Adobe Acrobat) Delta Day 28-baseline", "setting": "[2]; average of lesions", "result": 3}, {"measurement": "Lesion surface area (Adobe Acrobat) Percent Change Day 14", "setting": "[2]; average of lesions", "result": "−8", "unit": "%"}, {"measurement": "Lesion surface area (Adobe Acrobat) Percent Change Day 28", "setting": "[2]; average of lesions", "result": 7, "unit": "%"}, {"measurement": "Total Size of Lesion at Day 14 (Adobe Acrobat XI measurement tool)", "setting": "[2]; average of lesions", "result": 462, "unit": "sq mm"}, {"measurement": "Total Size of Lesion at Day 28 (Adobe Acrobat XI measurement tool)", "setting": "[2]; average of lesions", "result": 557, "unit": "sq mm"}, {"measurement": "Lesion surface area (Adobe Acrobat) Delta Day 14-baseline", "setting": "[2]; individual lesion", "result": "−4 and −924 and 37 and −146 and 25 and 282 and 290 and −230 and 106 and −103 and 81 and −503"}, {"measurement": "Lesion surface area (Adobe Acrobat) Delta Day 28-baseline", "setting": "[2]; individual lesion", "result": "−62 and −924 and 76 and −260 and −136 and 594 and 1062 and −216 and 247 and −48 and 146 and −441"}, {"measurement": "Lesion surface area (Adobe Acrobat) Percent Change Day 14", "setting": "[2]; individual lesion", "result": "−1% and −100% and 19% and −56% and 18% and 29% and 78% and −73% and 22% and −25% and 39% and −42%"}, {"measurement": "Lesion surface area (Adobe Acrobat) Percent Change Day 28", "setting": "[2]; individual lesion", "result": "−11% and −100% (3×) and 39% and 61% and 287% and −68% and 52% and −12% and 70% and −37%"}, {"measurement": "Total Size of Lesion at Day 14 (Adobe Acrobat XI measurement tool)", "setting": "[2]; individual lesion", "result": "568 sq mm and 0 sq mm and 232 sq mm and 114 sq mm and 161 sq mm and 1252 sq mm and 660 sq mm and 86 sq mm and 579 sq mm and 303 sq mm and 290 sq mm and 704 sq mm"}, {"measurement": "Total Size of Lesion at Day 28 (Adobe Acrobat XI measurement tool)", "setting": "[2]; individual lesion", "result": "509 sq mm and 0 sq mm (3×) and 271 sq mm and 1564 sq mm and 1432 sq mm and 100 sq mm and 720 sq mm and 358 sq mm and 355 sq mm and 766 sq mm"}, {"measurement": "CSOM Day 14 (sum of identified activities)", "setting": "[3]; average of six dogs", "result": 4.8}, {"measurement": "CSOM Day 28 (sum of identified activities)", "setting": "[3]; average of six dogs", "result": 6.3}, {"measurement": "CSOM Delta Day 14-baseline", "setting": "[3]; average of six dogs", "result": "−3.0"}, {"measurement": "CSOM Delta Day 28-baseline", "setting": "[3]; average of six dogs", "result": "−1.5"}, {"measurement": "CSOM Percent Change to Day 14", "setting": "[3]; average of six dogs", "result": "−41", "unit": "%"}, {"measurement": "CSOM Percent Change to Day 28", "setting": "[3]; average of six dogs", "result": "−26", "unit": "%"}, {"measurement": "benefit to dogs suffering from acral lick granuloma as indicated by CSOM results", "setting": "[3]; conclusion in words", "result": "provided a benefit"}, {"measurement": "CSOM Delta Day 14-baseline", "setting": "[3]; individual dog", "result": "−1 (2×) and −2 and −6 and −4 (2×)"}, {"measurement": "CSOM Delta Day 28-baseline", "setting": "[3]; individual dog", "result": "−1 and 2 (2×) and −4 (3×)"}, {"measurement": "CSOM Day 14 (sum of identified activities)", "setting": "[3]; individual dog, Day 14 after s.c. injection, approx. 1.5 μg trans-capsaicin per mm^2 of lesion", "result": "1 and 7 and 9 and 6 and 2 and 4"}, {"measurement": "CSOM Day 28 (sum of identified activities)", "setting": "[3]; individual dog, Day 28 after s.c. injection", "result": "1 and 11 and 12 and 8 and 2 and 4"}, {"measurement": "CSOM Percent Change to Day 14", "setting": "[3]; individual dog, vs baseline", "result": "−50% (3×) and −22% and −10% and −67%"}, {"measurement": "CSOM Percent Change to Day 28", "setting": "[3]; individual dog, vs baseline", "result": "−50% (2×) and 22% and 20% and −33% and −67%"}, {"measurement": "average reduction in CSOM at Day 14 compared with baseline", "setting": "[3]; six dogs", "result": 41, "unit": "%"}, {"measurement": "average reduction in CSOM at Day 28 compared with baseline", "setting": "[3]; six dogs", "result": 26, "unit": "%"}]}]}
